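Briefly, cells in 96-well plates were exposed to five compound concentrations for 48 h, and endpoints were estimated by linear interpolation. GI50 marks 50% less growth. TGI: concentration producing complete growth inhibition.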
Tests used:
Assay in all cases: growth of human tumour cells (NCI), 48 h
HT29 colon = tested on: HT29 colon
SK-MEL-2 melanoma = tested on: SK-MEL-2 melanoma
A498 renal = tested on: A498 renal
IGROV1 ovarian = tested on: IGROV1 ovarian
HOP-92 NSCLC = tested on: HOP-92 NSCLC
HCC-2998 colon = tested on: HCC-2998 colon
EKVX NSCLC = tested on: EKVX NSCLC
CAKI-1 renal = tested on: CAKI-1 renal
HCT-15 colon = tested on: HCT-15 colon

`CCOC(OCC)(OCC)C(Br)CC` (configuration not stated) showed a TGI (HT29 colon) of over 100 µM, a TGI (SK-MEL-2 melanoma) of over 100 µM and a TGI (A498 renal) of over 100 µM. For the same compound, the TGI (IGROV1 ovarian) was over 100 µM, the TGI (HOP-92 NSCLC) was over 100 µM and the TGI (HCC-2998 colon) was over 100 µM. The TGI (EKVX NSCLC) was over 100 µM and the TGI (CAKI-1 renal) was over 100 µM.

With `O=C(CC1(O)C(=O)Nc2c(Cl)ccc(Cl)c21)c1ccc(Cl)cc1` (configuration not stated) the TGI (HT29 colon) was 73.2 µM, the TGI (SK-MEL-2 melanoma) was 86.4 µM and the TGI (A498 renal) was 82.5 µM. The TGI (IGROV1 ovarian) was 57.7 µM, the TGI (HOP-92 NSCLC) was 93.9 µM and the TGI (HCT-15 colon) was over 100 µM. For the same compound, the TGI (HCC-2998 colon) was 71 µM, the TGI (EKVX NSCLC) was over 100 µM and the TGI (CAKI-1 renal) was over 100 µM.

For `N#Cc1c(CC(=O)O)cc(=O)n2c1[nH]c1ccccc12`, the TGI (HT29 colon) was over 100 µM, the TGI (SK-MEL-2 melanoma) was over 100 µM and the TGI (A498 renal) was over 100 µM. The TGI (IGROV1 ovarian) was over 100 µM, the TGI (HCT-15 colon) was over 100 µM and the TGI (HCC-2998 colon) was over 100 µM. It also gave a TGI (EKVX NSCLC) of over 100 µM and a TGI (CAKI-1 renal) of over 100 µM.

`CNS(=O)(=O)NNS(=O)(=O)c1ccc(C)cc1` was tested, and the TGI (HT29 colon) was over 100 µM, the TGI (SK-MEL-2 melanoma) was over 100 µM and the TGI (A498 renal) was over 100 µM. It also gave a TGI (IGROV1 ovarian) of over 100 µM, a TGI (HOP-92 NSCLC) of over 100 µM and a TGI (HCC-2998 colon) of over 100 µM. It also gave a TGI (EKVX NSCLC) of over 100 µM and a TGI (CAKI-1 renal) of over 100 µM.

In the case of `COC1=CC(=O)C(O)=C(CC2(C)C(C)CCC3(C)C2CCCC3(C)C)C1=O` (configuration not stated), the TGI (HT29 colon) is reported as 23.1 µM, the TGI (SK-MEL-2 melanoma) is reported as 15.5 µM and the TGI (A498 renal) is reported as 22.1 µM. It also gave a TGI (IGROV1 ovarian) of 28.5 µM, a TGI (HOP-92 NSCLC) of 7.63 µM and a TGI (HCT-15 colon) of 14.8 µM. The TGI (HCC-2998 colon) was 17.8 µM, the TGI (EKVX NSCLC) was 69.7 µM and the TGI (CAKI-1 renal) was 16.7 µM.

`C/C(=C\c1ccccc1)C(O)C(=O)c1nc2ccc(Cl)cc2[nH]c1=O` (configuration not stated) showed a TGI (HT29 colon) of over 100 µM, a TGI (SK-MEL-2 melanoma) of over 100 µM and a TGI (A498 renal) of over 100 µM. For the same compound, the TGI (IGROV1 ovarian) was over 100 µM, the TGI (HCT-15 colon) was over 100 µM and the TGI (HCC-2998 colon) was over 100 µM. It also gave a TGI (EKVX NSCLC) of over 100 µM and a TGI (CAKI-1 renal) of over 100 µM.

With `CC1(C)CC(=O)C(C(=O)Nc2cccs2)=C(O)C1` the TGI (HT29 colon) was over 100 µM, the TGI (SK-MEL-2 melanoma) was over 100 µM and the TGI (A498 renal) was 88.9 µM. For the same compound, the TGI (IGROV1 ovarian) was over 100 µM, the TGI (HOP-92 NSCLC) was 68.2 µM and the TGI (HCT-15 colon) was over 100 µM. The TGI (HCC-2998 colon) was over 100 µM, the TGI (EKVX NSCLC) was over 100 µM and the TGI (CAKI-1 renal) was 43.6 µM.

With `CCCCCNC(=O)CCCCCCCCCCCNC(=O)CCCCCCCCCCN1C=CC(=CC=C2C=CC(=O)C=C2)C=C1` the TGI (HT29 colon) was over 100 µM, the TGI (A498 renal) was over 100 µM and the TGI (IGROV1 ovarian) was over 100 µM. It also gave a TGI (HOP-92 NSCLC) of 55.1 µM, a TGI (HCT-15 colon) of over 100 µM and a TGI (HCC-2998 colon) of over 100 µM. The TGI (EKVX NSCLC) was over 100 µM and the TGI (CAKI-1 renal) was over 100 µM.

With `COc1ccc2cc3n(c(=O)c2c1)CCc1c-3cc(OC)c(OC)c1OC` the TGI (HT29 colon) was over 100 µM, the TGI (SK-MEL-2 melanoma) was over 100 µM and the TGI (IGROV1 ovarian) was over 100 µM. For the same compound, the TGI (HOP-92 NSCLC) was over 100 µM, the TGI (HCT-15 colon) was over 100 µM and the TGI (HCC-2998 colon) was over 100 µM. It also gave a TGI (EKVX NSCLC) of over 100 µM and a TGI (CAKI-1 renal) of over 100 µM.

Compound `COc1ccc(C(C)Nc2cc(OC)c(OC)c(OC)c2)cc1` (configuration not stated) has a TGI (HT29 colon) of over 100 µM, a TGI (SK-MEL-2 melanoma) of 81.1 µM and a TGI (A498 renal) of over 100 µM. For the same compound, the TGI (IGROV1 ovarian) was over 100 µM, the TGI (HOP-92 NSCLC) was over 100 µM and the TGI (HCT-15 colon) was over 100 µM. For the same compound, the TGI (HCC-2998 colon) was over 72.2 µM, the TGI (EKVX NSCLC) was over 100 µM and the TGI (CAKI-1 renal) was over 100 µM.

`O=C1Nc2ccc(Cl)cc2/C1=N/c1nc(-c2ccc(Cl)cc2)cs1` gave a GI50 (HT29 colon) of 1.87 µM, a TGI (HT29 colon) of 5.34 µM and a GI50 (SK-MEL-2 melanoma) of 1.93 µM. The TGI (SK-MEL-2 melanoma) was 4.85 µM, the GI50 (A498 renal) was 1.8 µM and the TGI (A498 renal) was 4.98 µM.

Work on `O=C1c2ccccc2C2(O)N(c3ccccc3)C(=S)N(c3ccccc3)C12O` (configuration not stated) yielded a TGI (HT29 colon) of over 100 µM, a TGI (SK-MEL-2 melanoma) of over 100 µM and a TGI (A498 renal) of over 100 µM. It also gave a TGI (IGROV1 ovarian) of over 100 µM, a TGI (HCT-15 colon) of over 100 µM and a TGI (HCC-2998 colon) of over 100 µM. For the same compound, the TGI (EKVX NSCLC) was over 100 µM and the TGI (CAKI-1 renal) was over 100 µM.

`CN(C)CCNC(=O)c1cccc2c1nc(-c1cccnc1)c1ccccc12` gave a TGI (HT29 colon) of 26.9 µM, a TGI (SK-MEL-2 melanoma) of 22.8 µM and a TGI (A498 renal) of 15.7 µM. For the same compound, the TGI (IGROV1 ovarian) was 26.3 µM, the TGI (HOP-92 NSCLC) was 19.1 µM and the TGI (HCT-15 colon) was 20.1 µM. For the same compound, the TGI (HCC-2998 colon) was 20.2 µM, the TGI (EKVX NSCLC) was 18.8 µM and the TGI (CAKI-1 renal) was 85.7 µM.

For `O=c1c2cc(Br)ccc2nc(CNc2ccccc2)n1-c1ccccc1`, the TGI (HT29 colon) was 46.2 µM, the TGI (SK-MEL-2 melanoma) was 62.3 µM and the TGI (A498 renal) was 93.4 µM. It also gave a TGI (IGROV1 ovarian) of 36.8 µM, a TGI (HOP-92 NSCLC) of 37.8 µM and a TGI (HCT-15 colon) of over 47.9 µM. It also gave a TGI (HCC-2998 colon) of 33.7 µM, a TGI (EKVX NSCLC) of 40.7 µM and a TGI (CAKI-1 renal) of 11.6 µM.

`CN1S(=O)(=O)N(C)P12(N=P(CP(=NP13(N(C)S(=O)(=O)N1C)N(C)S(=O)(=O)N3C)(c1ccccc1)c1ccccc1)(c1ccccc1)c1ccccc1)N(C)S(=O)(=O)N2C` was tested, and the TGI (HT29 colon) was over 100 µM, the TGI (SK-MEL-2 melanoma) was over 100 µM and the TGI (A498 renal) was over 100 µM. The TGI (IGROV1 ovarian) was over 100 µM, the TGI (HOP-92 NSCLC) was over 100 µM and the TGI (HCT-15 colon) was over 100 µM. The TGI (HCC-2998 colon) was over 100 µM, the TGI (EKVX NSCLC) was over 100 µM and the TGI (CAKI-1 renal) was over 100 µM.

In the case of `CCCCCCCCCCN=C(N)c1ccc(N2CCN(c3ccc(C(N)=NCCCCCCCCCC)cc3)CC2)cc1`, the GI50 (HT29 colon) is reported as 3.37 µM, the TGI (HT29 colon) is reported as over 50 µM and the GI50 (SK-MEL-2 melanoma) is reported as 7.74 µM. For the same compound, the TGI (SK-MEL-2 melanoma) was over 50 µM, the GI50 (IGROV1 ovarian) was 2.83 µM and the TGI (IGROV1 ovarian) was over 50 µM. The GI50 (HOP-92 NSCLC) was 5.88 µM, the TGI (HOP-92 NSCLC) was 28.9 µM and the GI50 (HCT-15 colon) was 14.1 µM. The TGI (HCT-15 colon) was over 50 µM, the GI50 (HCC-2998 colon) was 3.51 µM and the TGI (HCC-2998 colon) was over 50 µM. It also gave a GI50 (EKVX NSCLC) of 4.44 µM, a TGI (EKVX NSCLC) of 21.1 µM and a GI50 (CAKI-1 renal) of 17.9 µM. It also gave a TGI (CAKI-1 renal) of over 50 µM.

With `CC(C)(C)C1CC[C@H]2c3c([nH]c4ccccc34)[C@H]3C(=O)N(c4ccc(F)cc4)C(=O)[C@H]3[C@H]2C1` (some centres not stated) the TGI (SK-MEL-2 melanoma) was 33.2 µM, the TGI (A498 renal) was 45.7 µM and the TGI (IGROV1 ovarian) was 35.3 µM. It also gave a TGI (HOP-92 NSCLC) of 48.1 µM, a TGI (HCT-15 colon) of over 100 µM and a TGI (HCC-2998 colon) of 28.4 µM. The TGI (EKVX NSCLC) was 36.9 µM and the TGI (CAKI-1 renal) was 32.5 µM.

For `N#CC1(CCCCl)CCCCC1`, the TGI (HT29 colon) was over 100 µM, the TGI (SK-MEL-2 melanoma) was over 100 µM and the TGI (A498 renal) was over 100 µM. The TGI (IGROV1 ovarian) was over 100 µM, the TGI (HOP-92 NSCLC) was over 100 µM and the TGI (HCT-15 colon) was over 100 µM. The TGI (HCC-2998 colon) was over 100 µM and the TGI (EKVX NSCLC) was over 100 µM.

`O=S(=O)(Nc1ccccc1)c1ccc(C2CC3(Cl)C(Cl)=C(Cl)C2(Cl)C3(Cl)Cl)cc1` (configuration not stated) showed a GI50 (HT29 colon) of 2.37 µM, a TGI (HT29 colon) of 5.41 µM and a GI50 (SK-MEL-2 melanoma) of 2.23 µM. It also gave a TGI (SK-MEL-2 melanoma) of 4.16 µM, a GI50 (A498 renal) of 2.32 µM and a TGI (A498 renal) of 6.29 µM. It also gave a GI50 (IGROV1 ovarian) of 2.24 µM, a TGI (IGROV1 ovarian) of 5.13 µM and a GI50 (HOP-92 NSCLC) of 1.84 µM. The TGI (HOP-92 NSCLC) was 5.08 µM, the GI50 (HCT-15 colon) was 3.13 µM and the TGI (HCT-15 colon) was 10.2 µM. It also gave a GI50 (HCC-2998 colon) of 1.81 µM, a TGI (HCC-2998 colon) of 3.46 µM and a GI50 (EKVX NSCLC) of 3.02 µM. The TGI (EKVX NSCLC) was 8.37 µM, the GI50 (CAKI-1 renal) was 2.16 µM and the TGI (CAKI-1 renal) was 6.27 µM.

Work on `CC(C)CCCC(C)C1CCC2C3CC([N+](=O)[O-])=C4CC(O)CCC4(C)C3CCC12C` (configuration not stated) yielded a TGI (HT29 colon) of 55.5 µM, a TGI (SK-MEL-2 melanoma) of 29 µM and a TGI (A498 renal) of 40.6 µM. For the same compound, the TGI (IGROV1 ovarian) was 50.1 µM, the TGI (HOP-92 NSCLC) was 46.6 µM and the TGI (HCT-15 colon) was 33.6 µM. For the same compound, the TGI (HCC-2998 colon) was 37.2 µM, the TGI (EKVX NSCLC) was 57.2 µM and the TGI (CAKI-1 renal) was 66 µM.

With `CCOC(=O)C1C(NC(N)=O)N(Cc2ccccc2)C(=O)N1Cc1ccccc1` (configuration not stated) the TGI (HT29 colon) was over 100 µM, the TGI (SK-MEL-2 melanoma) was over 100 µM and the TGI (IGROV1 ovarian) was over 100 µM. It also gave a TGI (HOP-92 NSCLC) of over 100 µM, a TGI (HCT-15 colon) of over 100 µM and a TGI (HCC-2998 colon) of over 100 µM. It also gave a TGI (EKVX NSCLC) of over 100 µM and a TGI (CAKI-1 renal) of over 100 µM.

Source: PubChem BioAssay (NCI)
